Values quoted from earlier work as cited in patent US8333981B2, “Antifungal treatment of nails” (Humco Holding Group, Inc., priority 2007, dated 2012).
Like-named read-outs stand apart in the source and are kept apart here.

Assays:
[1] = tested on: fungi known to cause onychomycosis
[2] = tested on: dermatophyte isolates
[3] = tested on: C. albicans (monilia), C. neoformans, B. dermatitidis, A. israelii, H. capsulatum, C. immitis, M. furfur (tinea versicolor) and bacteria
[4] = tested on: chronic infections of the nails; settings: human, in vivo
[5] = not told
[6] = tested on: onychomycosis of fingernails and toenails due to Trichophyton rubrum; settings: after several months of use
[7] = not told; remark: listed apart in the source
[8] = tested on: toenail fungus
[9] = in vitro
[10] = human, in vivo
[11] = in vivo, po

## Cc1ccc(C(C)C)c(O)c1 [Thymol]
[1]
  effect on fungi causing onychomycosis / toenail infection: effective

## Cc1cccc(N(C)C(=S)Oc2ccc3ccccc3c2)c1 [Tolnaftate]
[2]
  dermatophyte isolates being sensitive: 47.22%

## COC1=CC(=O)C[C@@H](C)[C@]12Oc1c(Cl)c(OC)cc(OC)c1C2=O [Griseofulvin, griseofulvin]
[3]
  activity against listed organisms: inactive
[4]
  cure rates: poor cure rates

## NC(N)=O [Urea]
[5]
  drug permeability compared to control: significant increase

## Cc1cc(C2CCCCC2)n(O)c(=O)c1 [Ciclopirox, ciclopirox]
[6]
  cure rate: 14%

## Clc1ccc(COC(Cn2ccnc2)c2ccc(Cl)cc2Cl)c(Cl)c1 (centres unmarked) [Water-soluble miconazole, miconazole]
[2]
  dermatophyte isolates being sensitive: 75%

## Clc1ccccc1C(c1ccccc1)(c1ccccc1)n1ccnc1 [Clotrimazole]
[2]
  dermatophyte isolates being sensitive: 30.55%

## CCO [ethanol]
[7]
  average permeability coefficient: 5.8+/−3.1×10(−3) cm hr-1

## CC12CCC(CC1=O)C2(C)C (centres unmarked) [Camphor]
[8]
  anti-fungal activity: little or no detectable anti-fungal activity

## CC1CCC(C(C)C)C(O)C1 (centres unmarked) [Menthol]
[1]
  effect on fungi causing onychomycosis / toenail infection: specifically inhibits the growth

## CCCCCCCCO [n-octanol]
other
  permeability coefficient: 0.075 ×10⁻⁶ cm/s

## O [water]
Not told
  permeability coefficient: 4.58 ×10⁻⁶ cm/s
[7]
  average permeability coefficient: 16.5+/−5.9×10(−3) cm hr-1

## O=C([O-])CS.[Na+] [Sodium Thioglycolate]
[9]
  increase in flux compared to the control: 3.8 fold

## OC(Cn1cncn1)(Cn1cncn1)c1ccc(F)cc1F [fluconazole]
[10]
  patients who experienced adverse events: Sixteen

## CCC(C)n1ncn(-c2ccc(N3CCN(c4ccc(OCC5COC(Cn6cncn6)(c6ccc(Cl)cc6Cl)O5)cc4)CC3)cc2)c1=O (centres unmarked) [itraconazole]
[11]
  total observed incidence of adverse events possibly or directly drug-related: 18.2%
